In publication PMC5689723, “Targeting aggressive prostate cancer-associated CD44v6 using phage display selected peptides” (Oncotarget, 2017):

Tested on: v6A3 cells
Assay: MTT assay, v6A3 cells
Type: cell-based
Conditions: Homo sapiens, PC-3M, 48 h, 5000 cells per well, triplicate, 562 nm, after continuous passage for one month, P< 0.05 vs PC3M, read-out: DOX IC50 of v6A3

COc1cccc2c1C(=O)c1c(O)c3c(c(O)c1C2=O)C[C@@](O)(C(=O)CO)C[C@@H]3O[C@H]1C[C@H](N)[C@H](O)[C@H](C)O1 [DOX, doxorubicin]
IC50: 140 nM
